# Target: T1, voltage-dependent T-type calcium channel subunit alpha-1G (Cav3.2) (Homo sapiens, UniProt O95180)
# T1 construct: expressed in transfected cells; host or cells: HEK293
# Experiment: FLIPR calcium flux assay, HEK293 cells recombinantly expressing Cav3.2
# Type: cell-based
# Conditions: Cav3.2-channel, Fluo-4-AM, 3 min incubation, stimulation with 10 mM CaCl2
# Protocol: In Vitro Methods—Measurement of Calcium Channel Flux by Means of FLIPR Assays.
# HEK293 cells recombinantly expressing either voltage-dependent T-type calcium channel subunit […] (Cav3.2) or voltage-dependent L-type calcium channel subunit alpha-1C (Cav1.2) are assayed for calcium flux using the calcium indicator dye Fluo-4-AM (Molecular Devices) and FLIPR technology (Fluorometric Imaging Plate Reader, Molecular Devices) (Xie X, Van Deusen A L, Vitko I, Babu D A, Davies L A, Huynh N, Cheng H, Yang N, Barrett P Q, Perez-Reyes E. Validation of high throughput screening assays against three subtypes of Ca(v)3 T-type channels using molecular and pharmacologic approaches. Assay and Drug Development Technologies 2007, 5(2), 191-203). The HEK293 cells recombinantly expressing Cav3.2 are maintained in DMEM growth medium (Life Technologies) supplemented with 10% Fetal Bovine Serum (FBS), 100 U/ml penicilin (Life Technologies), 100 μg/ml streptomycin (Life Technologies) and 1 mg/ml G418 (Life Technologies). HEK293 cells recombinantly expressing Cav1.2 are maintained in DMEM growth medium (Life technologies) supplemented with 10% FBS, 0.1 mg/ml G418 (Life Technologies), 0.1 mg/ml hygromycin (Life Technologies) and 40 ug/ml zeocin (Life Technologies).
# The seeded plates are incubated overnight at 37° C.
# The cells are then washed three times with assay buffer (HBSS 1×; 0.375 g/L NaHCO3; 20 mM Hepes; 1% FBS; pH 7.4) and allowed to rest in 50 μl of wash buffer for 30 minutes.
# Stock solutions of test compounds are prepared to a concentration of 10 mM in DMSO. For the Cav3.2 assay, serial dilutions of the compounds are prepared in TEAC buffer (100 mM tetraethylammonium chloride; 20 mM Hepes; 2.5 mM CaCl2; 5 mM KCl; 1 mM MgCl2; 1% FBS; pH 7.2), for the Cav1.2 assay serial dilutions are prepared in assay buffer. […] The compounds are incubated with the cells for 3 minutes and Ca2+ entry is stimulated by adding either CaCl2 to a final concentration of 10 mM (Cav3.2 assay) or by adding KCl to a final concentration of 20 mM (Cav1.2 assay). The kinetics of fluorescence increase are recorded for every well and the area under the fluorescence trace for every compound concentration is used to generate inhibition curves using non-linear regression sigmoidal concentration-response curve analysis with in-house software.
# T1 sequence (O95180 whole entry): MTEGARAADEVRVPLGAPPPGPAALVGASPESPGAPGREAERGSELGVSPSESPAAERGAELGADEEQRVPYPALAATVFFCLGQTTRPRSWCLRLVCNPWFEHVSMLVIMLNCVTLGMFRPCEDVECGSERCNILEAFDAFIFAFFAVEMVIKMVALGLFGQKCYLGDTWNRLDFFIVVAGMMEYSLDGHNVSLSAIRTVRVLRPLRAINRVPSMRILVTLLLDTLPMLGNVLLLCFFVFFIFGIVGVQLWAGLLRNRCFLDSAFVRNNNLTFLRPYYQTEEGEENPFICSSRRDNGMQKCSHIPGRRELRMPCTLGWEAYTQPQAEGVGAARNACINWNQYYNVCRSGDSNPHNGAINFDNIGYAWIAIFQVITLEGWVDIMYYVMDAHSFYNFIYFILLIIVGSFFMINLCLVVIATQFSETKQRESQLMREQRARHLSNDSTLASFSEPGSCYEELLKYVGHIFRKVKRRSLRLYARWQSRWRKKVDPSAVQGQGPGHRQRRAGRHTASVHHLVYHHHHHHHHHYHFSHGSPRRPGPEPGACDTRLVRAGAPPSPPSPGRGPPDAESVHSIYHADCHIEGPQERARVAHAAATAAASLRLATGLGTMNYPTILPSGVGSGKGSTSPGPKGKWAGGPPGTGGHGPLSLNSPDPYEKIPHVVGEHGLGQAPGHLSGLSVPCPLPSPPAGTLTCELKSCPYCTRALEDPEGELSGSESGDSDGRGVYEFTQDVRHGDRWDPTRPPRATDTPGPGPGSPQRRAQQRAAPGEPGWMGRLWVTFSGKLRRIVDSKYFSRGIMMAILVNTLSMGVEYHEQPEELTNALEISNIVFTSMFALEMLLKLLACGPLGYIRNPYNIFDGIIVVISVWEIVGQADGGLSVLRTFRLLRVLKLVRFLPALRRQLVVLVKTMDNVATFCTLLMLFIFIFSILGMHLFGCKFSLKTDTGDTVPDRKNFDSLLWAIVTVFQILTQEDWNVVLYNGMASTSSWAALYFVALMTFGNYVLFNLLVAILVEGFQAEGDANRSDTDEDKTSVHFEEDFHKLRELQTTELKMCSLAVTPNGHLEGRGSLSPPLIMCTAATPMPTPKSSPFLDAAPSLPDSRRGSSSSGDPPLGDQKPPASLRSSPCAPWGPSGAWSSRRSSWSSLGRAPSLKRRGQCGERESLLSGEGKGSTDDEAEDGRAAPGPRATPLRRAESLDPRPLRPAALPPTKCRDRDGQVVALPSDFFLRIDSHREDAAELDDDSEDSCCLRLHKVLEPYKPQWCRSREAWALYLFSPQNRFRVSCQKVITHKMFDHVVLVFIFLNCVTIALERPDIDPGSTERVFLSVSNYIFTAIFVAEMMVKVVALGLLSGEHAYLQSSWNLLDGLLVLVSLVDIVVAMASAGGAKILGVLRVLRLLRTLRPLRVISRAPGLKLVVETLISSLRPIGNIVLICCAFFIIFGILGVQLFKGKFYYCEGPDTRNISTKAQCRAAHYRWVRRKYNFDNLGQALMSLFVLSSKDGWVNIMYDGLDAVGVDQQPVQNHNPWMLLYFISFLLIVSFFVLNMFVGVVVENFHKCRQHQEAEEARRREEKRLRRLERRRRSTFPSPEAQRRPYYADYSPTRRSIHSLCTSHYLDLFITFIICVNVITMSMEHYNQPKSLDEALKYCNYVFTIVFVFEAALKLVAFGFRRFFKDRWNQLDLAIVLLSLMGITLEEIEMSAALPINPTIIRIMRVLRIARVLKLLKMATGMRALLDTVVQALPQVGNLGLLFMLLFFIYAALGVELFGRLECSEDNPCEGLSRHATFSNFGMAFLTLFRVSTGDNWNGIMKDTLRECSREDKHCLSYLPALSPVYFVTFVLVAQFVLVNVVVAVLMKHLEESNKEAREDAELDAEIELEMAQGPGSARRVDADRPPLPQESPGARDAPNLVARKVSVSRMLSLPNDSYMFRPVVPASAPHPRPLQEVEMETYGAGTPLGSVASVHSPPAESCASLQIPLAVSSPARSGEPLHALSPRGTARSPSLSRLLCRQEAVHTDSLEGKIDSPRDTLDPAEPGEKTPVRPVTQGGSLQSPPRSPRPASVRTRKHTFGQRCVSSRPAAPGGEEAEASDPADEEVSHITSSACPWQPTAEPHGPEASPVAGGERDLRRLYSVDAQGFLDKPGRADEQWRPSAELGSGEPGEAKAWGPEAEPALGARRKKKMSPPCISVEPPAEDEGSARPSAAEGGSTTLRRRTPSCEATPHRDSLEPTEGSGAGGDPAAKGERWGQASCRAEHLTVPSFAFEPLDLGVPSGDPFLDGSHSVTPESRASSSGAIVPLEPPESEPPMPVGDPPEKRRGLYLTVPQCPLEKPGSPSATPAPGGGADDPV
row,IC50 [nM],Compound
1,4,"CN(C)c1ccc(CC(=O)Nc2ccn(Cc3ccc(F)c(Cl)c3)n2)cc1 [Example 31, N-[1-(3-Chloro-4-fluoro-benzyl)-1H-pyrazol-3-yl]-2-(4-dimethylamino-phenyl)-acetamide]"
2,7.6,"Cc1ccc(Cn2ccc(NC(=O)Cc3ccc(N(C)C)cc3)n2)cc1F [Example 32, 2-(4-Dimethylamino-phenyl)-N-[1-(3-fluoro-4-methyl-benzyl)-1H-pyrazol-3-yl]-acetamide]"
3,101,"CN(C)c1ccc(CC(=O)Nc2ccn(Cc3ccc(C#N)cn3)n2)cc1 [Example 33, N-[1-(5-Cyano-pyridin-2-ylmethyl)-1H-pyrazol-3-yl]-2-(4-dimethylamino-phenyl)-acetamide]"
4,91,"CN(C)c1ccc(CC(=O)Nc2ccn(Cc3ccc(Cl)c(OC(F)(F)F)c3)n2)cc1 [Example 34, N-[1-(4-Chloro-3-trifluoromethoxy-benzyl)-1H-pyrazol-3-yl]-2-(4-dimethylamino-phenyl)-acetamide]"
5,43,"CCc1ccc(Cn2ccc(NC(=O)Cc3ccc(N(C)C)nc3)n2)cc1 [Example 35, 2-(6-Dimethylamino-pyridin-3-yl)-N-[1-(4-ethyl-benzyl)-1H-pyrazol-3-yl]-acetamide]"
6,160,"CN(C)c1ccc(CC(=O)Nc2ccn(Cc3ccc(OC(F)F)cc3)n2)cn1 [Example 36, N-[1-(4-Difluoromethoxy-benzyl)-1H-pyrazol-3-yl]-2-(6-dimethylamino-pyridin-3-yl)-acetamide]"
7,29,"CN(C)c1ccc(CC(=O)Nc2ccn(Cc3ccc(OC(F)(F)F)cc3)n2)cn1 [Example 37, 2-(6-Dimethylamino-pyridin-3-yl)-N-[1-(4-trifluoromethoxy-benzyl)-1H-pyrazol-3-yl]-acetamide]"
8,39,"Cc1ccc(Cn2ccc(NC(=O)Cc3ccc(N(C)C)nc3)n2)cc1F [Example 38, 2-(6-Dimethylamino-pyridin-3-yl)-N-[1-(3-fluoro-4-methyl-benzyl)-1H-pyrazol-3-yl]-acetamide]"
9,49,"Cc1cc(Cn2ccc(NC(=O)Cc3ccc(N(C)C)nc3)n2)ccc1F [Example 39, 2-(6-Dimethylamino-pyridin-3-yl)-N-[1-(4-fluoro-3-methyl-benzyl)-1H-pyrazol-3-yl]-acetamide]"
10,16,"CN(C)c1ccc(CC(=O)Nc2ccn(Cc3ccc(F)c(Cl)c3)n2)cn1 [Example 40, N-[1-(3-Chloro-4-fluoro-benzyl)-1H-pyrazol-3-yl]-2-(6-dimethylamino-pyridin-3-yl)-acetamide]"
11,38,"CN(C)c1ccc(CC(=O)Nc2ccn(Cc3cc(F)c(F)c(F)c3)n2)cn1 [Example 41, 2-(6-Dimethylamino-pyridin-3-yl)-N-[1-(3,4,5-trifluoro-benzyl)-1H-pyrazol-3-yl]-acetamide]"
12,19,"CN(C)c1ccc(CC(=O)Nc2ccn(Cc3ccc(Cl)c(F)c3)n2)cn1 [Example 42, N-[1-(4-Chloro-3-fluoro-benzyl)-1H-pyrazol-3-yl]-2-(6-dimethylamino-pyridin-3-yl)-acetamide]"
13,82,"COc1c(F)cc(Cn2ccc(NC(=O)Cc3ccc(N(C)C)nc3)n2)cc1F [Example 43, N-[1-(3,5-Difluoro-4-methoxy-benzyl)-1H-pyrazol-3-yl]-2-(6-dimethylamino-pyridin-3-yl)-acetamide]"
14,372,"COc1ccc(Cn2ccc(NC(=O)Cc3ccc(N(C)C)cc3)n2)nc1 [Example 44, 2-(4-Dimethylamino-phenyl)-N-[1-(5-methoxy-pyridin-2-ylmethyl)-1H-pyrazol-3-yl]-acetamide]"
15,33,"COc1ccc(Cn2ccc(NC(=O)Cc3ccc(OCC(F)(F)F)cc3)n2)cc1 [Example 45, N-[1-(4-Methoxy-benzyl)-1H-pyrazol-3-yl]-2-[4-(2,2,2-trifluoro-ethoxy)-phenyl]-acetamide]"
16,26,"O=C(Cc1ccc(OCC(F)(F)F)cc1)Nc1ccn(Cc2ccc(F)cc2)n1 [Example 46, N-[1-(4-Fluoro-benzyl)-1H-pyrazol-3-yl]-2-[4-(2,2,2-trifluoro-ethoxy)-phenyl]-acetamide]"
17,37,"N#Cc1ccc(Cn2ccc(NC(=O)Cc3ccc(OCC(F)(F)F)cc3)n2)cc1 [Example 47, N-[1-(4-Cyano-benzyl)-1H-pyrazol-3-yl]-2-[4-(2,2,2-trifluoro-ethoxy)-phenyl]-acetamide]"

row,IC50 [nM],Compound
1,138,"CCN(C)c1ccc(CC(=O)Nc2ccn(Cc3ccc(F)cc3)n2)cn1 [Example 48, 2-[6-(Ethyl-methyl-amino)-pyridin-3-yl]-N-[1-(4-fluoro-benzyl)-1H-pyrazol-3-yl]-acetamide]"
2,9.2,"O=C(Cc1ccc(N2CC(F)(F)C2)cc1)Nc1ccn(Cc2ccc(F)cc2)n1 [Example 49, 2-[4-(3,3-Difluoro-azetidin-1-yl)-phenyl]-N-[1-(4-fluoro-benzyl)-H-pyrazol-3-yl]-acetamide]"
3,11,"N#Cc1ccc(Cn2ccc(NC(=O)Cc3ccc(N4CC(F)(F)C4)cc3)n2)cc1 [Example 50, N-[1-(4-Cyano-benzyl)-1H-pyrazol-3-yl]-2-[4-(3,3-difluoro-azetidin-1-yl)-phenyl]-acetamide]"
4,16,"COc1ccc(Cn2ccc(NC(=O)Cc3ccc(N4CC(F)(F)C4)cc3)n2)cc1 [Example 51, 2-[4-(3,3-Difluoro-azetidin-1-yl)-phenyl]-N-[1-(4-methoxy-benzyl)-1H-pyrazol-3-yl]-acetamide]"
5,2.6,"O=C(Cc1ccc(N2CC(F)(F)C2)cc1)Nc1ccn(Cc2ccc(F)c(F)c2)n1 [Example 52, 2-[4-(3,3-Difluoro-azetidin-1-yl)-phenyl]-N-[1-(3,4-difluoro-benzyl)-1H-pyrazol-3-yl]-acetamide]"
6,6.7,"O=C(Cc1ccc(N2CCC2)cc1)Nc1ccn(Cc2ccc(F)cc2)n1 [Example 53, 2-(4-Azetidin-1-yl-phenyl)-N-[1-(4-fluoro-benzyl)-1H-pyrazol-3-yl]-acetamide]"
7,28,"N#Cc1ccc(Cn2ccc(NC(=O)Cc3ccc(N4CCC4)cc3)n2)cc1 [Example 54, 2-(4-Azetidin-1-yl-phenyl)-N-[1-(4-cyano-benzyl)-1H-pyrazol-3-yl]-acetamide]"
8,33,"COc1ccc(Cn2ccc(NC(=O)Cc3ccc(N4CCC4)cc3)n2)cc1 [Example 55, 2-(4-Azetidin-1-yl-phenyl)-N-[1-(4-methoxy-benzyl)-1H-pyrazol-3-yl]-acetamide]"
9,285,"CN(C)c1ccc(CC(=O)Nc2ccn(Cc3ccc(C#N)c(F)c3)n2)cn1 [Example 58, N-[1-(4-Cyano-3-fluoro-benzyl)-1H-pyrazol-3-yl]-2-(6-dimethylamino-pyridin-3-yl)-acetamide]"
10,4.7,"O=C(Cc1ccc(N2CCC2)cc1)Nc1ccn(Cc2ccc(F)c(F)c2)n1 [Example 60, 2-(4-Azetidin-1-yl-phenyl)-N-[1-(3,4-difluoro-benzyl)-1H-pyrazol-3-yl]-acetamide]"
11,3.4,"O=C(Cc1ccc(N2CC[C@H](F)C2)cc1)Nc1ccn(Cc2ccc(F)c(F)c2)n1 [Example 61, N-[1-(3,4-Difluoro-benzyl)-1H-pyrazol-3-yl]-2-[4-((S)-3-fluoro-pyrrolidin-1-yl)-phenyl]-acetamide]"
12,3.8,"O=C(Cc1ccc(N2CC(F)C2)cc1)Nc1ccn(Cc2ccc(F)c(F)c2)n1 [Example 62, N-[1-(3,4-Difluoro-benzyl)-1H-pyrazol-3-yl]-2-[4-(3-fluoro-azetidin-1-yl)-phenyl]-acetamide]"
13,38,"O=C(Cc1ccc(OC2CC2)cc1)Nc1ccn(Cc2ccc(F)cc2)n1 [Example 63, 2-(4-Cyclopropoxy-phenyl)-N-[1-(4-fluoro-benzyl)-1H-pyrazol-3-yl]-acetamide]"
14,80,"N#Cc1ccc(Cn2ccc(NC(=O)Cc3ccc(OC4CC4)cc3)n2)cc1 [Example 64, N-[1-(4-Cyano-benzyl)-1H-pyrazol-3-yl]-2-(4-cyclopropoxy-phenyl)-acetamide]"
15,74,"COc1ccc(Cn2ccc(NC(=O)Cc3ccc(OC4CC4)cc3)n2)cc1 [Example 65, 2-(4-Cyclopropoxy-phenyl)-N-[1-(4-methoxy-benzyl)-1H-pyrazol-3-yl]-acetamide]"
16,19,"O=C(Cc1ccc(OC2CC2)cc1)Nc1ccn(Cc2ccc(F)c(F)c2)n1 [Example 66, 2-(4-Cyclopropoxy-phenyl)-N-[1-(3,4-difluoro-benzyl)-1H-pyrazol-3-yl]-acetamide]"
17,3.4,"O=C(Cc1ccc(N2CCC(F)(F)C2)cc1)Nc1ccn(Cc2ccc(F)c(F)c2)n1 [Example 67, N-[1-(3,4-Difluoro-benzyl)-1H-pyrazol-3-yl]-2-[4-(3,3-difluoro-pyrrolidin-1-yl)-phenyl]-acetamide]"

# Reference: patent publication US9932314B2, “Pyrazole compounds and their use as T-type calcium channel blockers” (IDORSIA PHARMACEUTICALS LTD, priority 2015, dated 2018)
